The text below walks through data of patent US20250223295A1, “SOLID STATE FORMS OF RUCAPARIB TOSYLATE” (ASSIA CHEMICAL INDUSTRIES LTD., priority 2022, published 2025).

Entries after “also recorded” stand apart in the source; their conditions may differ.

Common to all, as to format: physicochemical
A short description of data set [1]: Storage stability at different relative humidities (XRPD). The conditions noted are these: for XRPD analysis results: 7 days. As to the method:
(§1) A sample is powdered in a mortar and pestle and applied directly on a silicon plate holder. The X-ray powder diffraction pattern was measured with Philips X'Pert PRO X-ray powder diffractometer, equipped with Cu irradiation source=1.54184 Å (Ångström), X'Celerator (2.022° 2θ) detector. Scanning parameters: angle range: 3-40 deg., step size 0.0167, time per step 37 s, continuous scan.
Samples of Rucaparib tosylate form X (about 200 mg each) were subjected to conditions of different relative humidities at ambient temperature. XRPD analysis was performed on the samples after 7 days.
A sample of Rucaparib tosylate form X was subjected to 100% relative humidity at 25° C.

A short description of data set [2]: Grinding experiments (XRPD). Particulars: for XRPD analysis results: 3 minutes. As to the method: as §1
Samples of Rucaparib tosylate form X were subjected to strong grinding, and to solvent drop grinding in water, ethanol (96%) and 2-propanol. Grinding was carried out on the samples alone, or in the presence of ethanol, water and 2-propanol. In these experiments, about 20-30 mg of the sample were placed in a mortar and ground with a pestle for 3 minutes. The solvent, when used, as added to the crystalline material before grinding, in a volume of 10 microlitres.

Data set [3] is described as follows: Exposure to solvent vapour (XRPD). Particulars: 25° C., 7 days. As to the method: as §1
Samples of Rucaparib tosylate form X (20-40 mg) were put in small vials and exposed to solvent vapours (2.5 ml each of ethanol, 96%, water and 2-propanol) at 25° C.

The nature of data set [4]: Thermal stability (XRPD). The conditions noted are these: Heating 100° C., 30 minutes. As to the method:
as §1
A sample of Rucaparib tosylate form X was subjected to heating up to 100° C. for 30 minutes.

Data set [5] is described as follows: Stability to compression (XRPD). Particulars: for XRPD analysis results: after 1-5 minutes. As to the method: as §1
Samples of Rucaparib tosylate form X were subjected to pressures of 1000 kg and 2000 kg. XRPD analysis was performed on the samples after 1-5 minutes.

As to “Rucaparib Tosylate [Rucaparib tosylate form X]”, the XRPD analysis results in data set [1] (20% relative humidity, ambient temperature, triplicate) is “Form X”; in data set [1] (40% relative humidity, ambient temperature, triplicate), “Form X”; in data set [1] (60% relative humidity, ambient temperature, triplicate) it was “Form X”; in data set [1] (80% relative humidity, ambient temperature, triplicate), “Form X”; in data set [1] (100% relative humidity, ambient temperature, triplicate) it was “Form X”; in data set [2] (Solvent-drop grinding (2-propanol), 10 microlitres), “Form X”. Moreover, the XRPD analysis results is listed as “Form X” in data set [2] (Solvent-drop grinding (ethanol), 10 microlitres); “Form X” in data set [2] (Solvent-drop grinding (water), 10 microlitres); “Form X” in data set [2] (Strong grinding); “Form X” in data set [3] (2-propanol vapour); “Form X” in data set [3] (Ethanol, 96% vapour); “Form X” in data set [3] (Water vapour). Further, the XRPD analysis results in data set [5] (Pressure 1000 kg) and in data set [5] (Pressure 2000 kg) was “No change” throughout. Further, the “Stability after exposure to high and low relative humidity” value in data set [1] (20-100% relative humidity, ambient temperature, at least 7 days) was “stable”. Besides, the “XRPD analysis, polymorphic change” value in data set [1] (100% relative humidity, 25° C., 30 days, triplicate) was “no polymorphic change”. Also, in data set [2] (all grinding conditions: alone or with ethanol, water, 2-propanol), the “XRPD analysis after the grinding experiment” value is “no change in the starting material”. In data set [4], the “Result (XRPD analysis)” value is reported as “no change in the starting material; also recorded: Form X”. For the same substance, the “Stability under high pressure conditions” value in data set [5] (pressures of 1000 kg and 2000 kg) is given as “stable”.
